Laboratory results from PubChem BioAssay (NCI).
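Protocol summary: plate cells (96-well), add compound at 5 concentrations, incubate 48 h, interpolate endpoints linearly. GI50 marks 50% less growth. TGI marks complete inhibition of growth.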

Assays:
Experiment in all cases: DTP human tumour cell line panel, 48 h
SF-268 CNS = tested on: SF-268 CNS
HS 578T breast = tested on: HS 578T breast
SW-620 colon = tested on: SW-620 colon
KM12 colon = tested on: KM12 colon
MCF7 breast = tested on: MCF7 breast
CCRF-CEM leukemia = tested on: CCRF-CEM leukemia
COLO 205 colon = tested on: COLO 205 colon
MDA-MB-231 breast = tested on: MDA-MB-231 breast
A549 NSCLC = tested on: A549 NSCLC
MDA-N = tested on: MDA-N

SMILES: c1ccc([P+](c2ccccc2)(c2ccccc2)c2ccc([P+](c3ccccc3)(c3ccccc3)c3ccccc3)cc2)cc1
- TGI (SF-268 CNS): > 100 µM
- TGI (HS 578T breast): > 100 µM
- TGI (SW-620 colon): > 100 µM
- TGI (KM12 colon): > 100 µM
- TGI (MCF7 breast): > 100 µM
- TGI (CCRF-CEM leukemia): > 100 µM
- TGI (COLO 205 colon): 50.8 µM
- TGI (MDA-MB-231 breast): > 100 µM
- TGI (A549 NSCLC): > 100 µM
- TGI (MDA-N): > 100 µM

SMILES: CC1(C)[C@@H]2CC[C@@]1(C)[C@H](O)[C@@H]2SCc1ccccc1
- TGI (SF-268 CNS): 32.6 µM
- TGI (HS 578T breast): 30.7 µM
- TGI (SW-620 colon): 74.9 µM
- TGI (KM12 colon): 36.4 µM
- TGI (CCRF-CEM leukemia): 96.6 µM
- TGI (COLO 205 colon): 34.1 µM
- TGI (MDA-MB-231 breast): 33 µM
- TGI (A549 NSCLC): 48.6 µM
- TGI (MDA-N): 43.4 µM

SMILES: CCOC(=O)C1CCCCc2sc(N)c(C#N)c21 (stereo not given)
- TGI (HS 578T breast): > 100 µM
- TGI (SW-620 colon): > 100 µM
- TGI (KM12 colon): > 100 µM
- TGI (MCF7 breast): > 100 µM
- TGI (COLO 205 colon): > 100 µM
- TGI (MDA-MB-231 breast): > 100 µM
- TGI (A549 NSCLC): > 100 µM
- TGI (MDA-N): > 100 µM

SMILES: Cc1ccc(/C=C2\CN(C)CC3C2=NC(=S)NC3c2ccc(C)cc2)cc1 (stereo not given)
- TGI (SF-268 CNS): > 100 µM
- TGI (HS 578T breast): > 100 µM
- TGI (SW-620 colon): > 100 µM
- TGI (KM12 colon): > 100 µM
- TGI (MCF7 breast): > 100 µM
- TGI (CCRF-CEM leukemia): 54.5 µM
- TGI (COLO 205 colon): > 71.7 µM
- TGI (MDA-MB-231 breast): > 100 µM
- TGI (A549 NSCLC): > 100 µM
- TGI (MDA-N): 80.5 µM

SMILES: COC(=O)/C=C/c1ccc2c(c1)CC1(Cc3ccccc3C1)C2
- TGI (HS 578T breast): 80.4 µM
- TGI (KM12 colon): > 100 µM
- TGI (MCF7 breast): > 100 µM
- TGI (CCRF-CEM leukemia): 57.3 µM
- TGI (COLO 205 colon): > 100 µM
- TGI (MDA-MB-231 breast): > 100 µM
- TGI (A549 NSCLC): > 100 µM
- TGI (MDA-N): > 100 µM

SMILES: Cc1cn([C@H]2[C@@H](CO)C[C@H]2O)c(=O)[nH]c1=O
- TGI (SF-268 CNS): > 100 µM
- TGI (HS 578T breast): > 100 µM
- TGI (SW-620 colon): > 100 µM
- TGI (KM12 colon): > 100 µM
- TGI (MCF7 breast): > 100 µM
- TGI (CCRF-CEM leukemia): > 100 µM
- TGI (COLO 205 colon): > 100 µM
- TGI (MDA-MB-231 breast): > 100 µM
- TGI (A549 NSCLC): > 100 µM
- TGI (MDA-N): > 100 µM

SMILES: COc1ccc(C=Nc2ccc(-c3nc4ccccc4[nH]3)cc2)cc1OC
- TGI (SF-268 CNS): > 100 µM
- TGI (HS 578T breast): > 100 µM
- TGI (SW-620 colon): > 100 µM
- TGI (KM12 colon): > 100 µM
- TGI (MCF7 breast): > 100 µM
- TGI (CCRF-CEM leukemia): > 100 µM
- TGI (COLO 205 colon): > 100 µM
- TGI (MDA-MB-231 breast): > 100 µM
- TGI (A549 NSCLC): > 100 µM
- TGI (MDA-N): > 100 µM

SMILES: COc1ccc(-c2c3ccccc3c(-c3ccc(OCCCCCBr)cc3)c3ccccc23)cc1
- TGI (SF-268 CNS): > 100 µM
- TGI (SW-620 colon): > 100 µM
- TGI (KM12 colon): > 100 µM
- TGI (CCRF-CEM leukemia): > 100 µM
- TGI (COLO 205 colon): > 100 µM
- TGI (A549 NSCLC): > 100 µM

SMILES: O=S1(=O)OCCOS(=O)(=O)C1Cc1nc2ccccc2[nH]1
- TGI (KM12 colon): > 100 µM
- TGI (MCF7 breast): > 100 µM
- TGI (CCRF-CEM leukemia): > 100 µM
- TGI (COLO 205 colon): > 100 µM
- TGI (MDA-MB-231 breast): > 100 µM
- TGI (A549 NSCLC): > 100 µM
- TGI (MDA-N): > 100 µM

SMILES: Oc1[nH]c2ccccc2c1/C=c1/cc2c(c(-c3ccc(C(F)(F)F)cc3)n1)=Nc1ccccc1-2
- GI50 (SF-268 CNS): 10.3 µM
- TGI (SF-268 CNS): 38.8 µM
- GI50 (HS 578T breast): 10.3 µM
- TGI (HS 578T breast): 69.9 µM
- GI50 (SW-620 colon): 2.4 µM
- TGI (SW-620 colon): 13 µM
- GI50 (KM12 colon): 2.16 µM
- TGI (KM12 colon): 12.2 µM
- GI50 (MCF7 breast): 1.53 µM
- TGI (MCF7 breast): 5.14 µM
- GI50 (CCRF-CEM leukemia): 3.06 µM
- TGI (CCRF-CEM leukemia): 16.4 µM
- GI50 (COLO 205 colon): 1.95 µM
- TGI (COLO 205 colon): 5.13 µM
- GI50 (MDA-MB-231 breast): 1.89 µM
- TGI (MDA-MB-231 breast): 13.9 µM
- GI50 (A549 NSCLC): 4.79 µM
- TGI (A549 NSCLC): 28.8 µM

SMILES: COc1cc2cc(C(=O)N3CC(CCl)c4c3cc([N+](C)(C)Cc3ccc([N+](=O)[O-])n3C)c3ccccc43)[nH]c2c(OC)c1OC (stereo not given)
- TGI (SF-268 CNS): > 100 µM
- TGI (HS 578T breast): 38.2 µM
- TGI (SW-620 colon): > 100 µM
- TGI (KM12 colon): > 23.8 µM
- TGI (MCF7 breast): 12.5 µM
- TGI (CCRF-CEM leukemia): 18.6 µM
- TGI (COLO 205 colon): 7.36 µM
- TGI (A549 NSCLC): 1.06 µM
- TGI (MDA-N): 6.64 µM

SMILES: CO[P@]1(=O)O[C@@H](c2ccccc2)[C@H](O)[C@@]1(O)c1ccccc1
- TGI (SW-620 colon): > 100 µM
- TGI (KM12 colon): > 100 µM
- TGI (MCF7 breast): > 100 µM
- TGI (CCRF-CEM leukemia): > 100 µM
- TGI (COLO 205 colon): > 100 µM
- TGI (MDA-MB-231 breast): > 100 µM
- TGI (A549 NSCLC): > 100 µM
- TGI (MDA-N): > 100 µM

SMILES: COC(=O)C(NC(=O)CSc1nnc(COc2ccc(Cl)cc2)n1-c1ccccc1)C(C)C (stereo not given)
- TGI (SF-268 CNS): 44.9 µM
- TGI (SW-620 colon): > 100 µM
- TGI (KM12 colon): 38.5 µM
- TGI (MCF7 breast): > 100 µM
- TGI (CCRF-CEM leukemia): > 100 µM
- TGI (COLO 205 colon): 48.6 µM
- TGI (MDA-MB-231 breast): 35.1 µM
- TGI (A549 NSCLC): > 100 µM
- TGI (MDA-N): 32.1 µM

SMILES: Nc1c(N=Nc2ccc(-c3ccc(N=Nc4c(O)ccc5cc(S(=O)(=O)O)cc(S(=O)(=O)O)c45)cc3)cc2)c(S(=O)(=O)O)cc2cc(S(=O)(=O)O)c(N=Nc3ccccc3)c(O)c12
- TGI (SF-268 CNS): > 100 µM
- TGI (SW-620 colon): > 100 µM
- TGI (KM12 colon): > 100 µM
- TGI (MCF7 breast): > 100 µM
- TGI (CCRF-CEM leukemia): > 100 µM
- TGI (COLO 205 colon): > 100 µM
- TGI (A549 NSCLC): > 100 µM

SMILES: COc1ccc(C2=C(OC(=O)N(C)C)c3cccn3-c3cc(Cl)ccc3S2)cc1
- TGI (SF-268 CNS): > 10 µM
- TGI (SW-620 colon): > 10 µM
- TGI (KM12 colon): > 10 µM
- TGI (MCF7 breast): > 10 µM
- TGI (CCRF-CEM leukemia): > 10 µM
- TGI (COLO 205 colon): > 10 µM
- TGI (MDA-MB-231 breast): > 10 µM
- TGI (A549 NSCLC): > 10 µM
- TGI (MDA-N): > 10 µM

SMILES: CC12CC(c3ccccc3O1)C(C(=O)Nc1cccc(F)c1)C(=O)N2 (stereo not given)
- TGI (SF-268 CNS): > 100 µM
- TGI (HS 578T breast): > 100 µM
- TGI (SW-620 colon): > 100 µM
- TGI (KM12 colon): > 100 µM
- TGI (MCF7 breast): > 100 µM
- TGI (CCRF-CEM leukemia): > 100 µM
- TGI (COLO 205 colon): > 100 µM
- TGI (A549 NSCLC): > 100 µM
- TGI (MDA-N): > 100 µM

SMILES: Cc1ccc2c(c1)CC1(C2=O)[C@H](c2ccccc2)C2C(=O)c3ccc(C)cc3C2[C@H]1c1ccccc1 (stereo not given in full)
- TGI (SF-268 CNS): > 100 µM
- TGI (SW-620 colon): > 100 µM
- TGI (KM12 colon): > 100 µM
- TGI (MCF7 breast): > 100 µM
- TGI (CCRF-CEM leukemia): > 100 µM
- TGI (COLO 205 colon): > 100 µM
- TGI (MDA-MB-231 breast): > 100 µM
- TGI (A549 NSCLC): > 100 µM
- TGI (MDA-N): > 100 µM

SMILES: OC12CCCCCC1(N1CCOCC1)c1ccccc12 (stereo not given)
- TGI (SF-268 CNS): > 100 µM
- TGI (SW-620 colon): > 100 µM
- TGI (KM12 colon): > 100 µM
- TGI (CCRF-CEM leukemia): > 100 µM
- TGI (COLO 205 colon): > 100 µM
- TGI (A549 NSCLC): > 100 µM

SMILES: C=CCOC(=O)CCCCCCCCCCCCCCCOC(=O)C1=C(CCC[C@@H](C)O[Si](C)(C)C(C)(C)C)NC(=O)N2[C@H](CC3(CC/C=C\[C@H](CC)O[Si](C(C)C)(C(C)C)C(C)C)OCCO3)CC[C@H]12
- TGI (SF-268 CNS): > 100 µM
- TGI (KM12 colon): > 100 µM
- TGI (MCF7 breast): > 100 µM
- TGI (CCRF-CEM leukemia): > 100 µM
- TGI (COLO 205 colon): > 100 µM
- TGI (MDA-MB-231 breast): > 100 µM
- TGI (A549 NSCLC): > 100 µM
- TGI (MDA-N): > 100 µM

SMILES: COC(=O)n1c(C[P+](c2ccccc2)(c2ccccc2)c2ccccc2)cc2ccccc21
- TGI (SF-268 CNS): 16.1 µM
- TGI (SW-620 colon): 13.1 µM
- TGI (KM12 colon): 3.94 µM
- TGI (CCRF-CEM leukemia): 21.1 µM
- TGI (COLO 205 colon): 2.92 µM
- TGI (A549 NSCLC): 12.4 µM

SMILES: CC(C)(C)CC(C)(C)c1ccc(OCCOCC[N+](C)(C)Cc2ccccc2)cc1
- TGI (SF-268 CNS): 5.92 µM
- GI50 (HS 578T breast): 1.61 µM
- TGI (HS 578T breast): 4.81 µM
- TGI (SW-620 colon): 21 µM
- TGI (CCRF-CEM leukemia): 6.36 µM
- TGI (COLO 205 colon): 2.91 µM
- GI50 (MDA-MB-231 breast): 1.34 µM
- TGI (MDA-MB-231 breast): 2.82 µM
- TGI (A549 NSCLC): 32.8 µM
